ChEMBL document CHEMBL3046389, “Synthesis and biological evaluation of novel hydroquinone dimethyl ethers as potential anticancer and antimicrobial agents” (2013)
Values after ≈ are worked out from the molar mass of the structure shown.

Experiments:
Format in all cases: functional
RXF 393 = experiment: Anticancer activity against Homo sapiens (human) RXF393 cells after 48 hr by SRB assay; conditions: RXF 393, 48 h
Staphylococcus aureus = experiment: Antimicrobial activity against Staphylococcus aureus DSM 1104 after 48 hr by two-fold serial broth dilution method; conditions: DSM 1104, 48 h
M14 = experiment: Anticancer activity against Homo sapiens (human) M14 cells after 48 hr by SRB assay; conditions: M14, 48 h
ACHN = experiment: Anticancer activity against Homo sapiens (human) ACHN cells after 48 hr by SRB assay; conditions: for CC50: read-out: LC50 (the source's name)
SF-295 = experiment: Anticancer activity against Homo sapiens (human) SF295 cells after 48 hr by SRB assay; conditions: SF-295, 48 h; for CC50: read-out: LC50 (the source's name)
SR = experiment: Anticancer activity against Homo sapiens (human) SR cells after 48 hr by SRB assay; conditions: for CC50: read-out: LC50 (the source's name)
MDA-MB-435 = experiment: Growth inhibition of Homo sapiens (human) MDA-MB-435 cells at 10 uM after 48 hr by SRB assay; conditions: MDA-MB-435, 48 h, read-out: GI
HCT-116 = experiment: Anticancer activity against Homo sapiens (human) HCT116 cells after 48 hr by SRB assay; conditions: HCT-116, 48 h; for CC50: read-out: LC50 (the source's name)
786-0 [1] = experiment: Anticancer activity against Homo sapiens (human) 786-0 cells after 48 hr by SRB assay; conditions: 786-0, 48 h; for CC50: read-out: LC50 (the source's name)
MDA-MB-231 = experiment: Anticancer activity against Homo sapiens (human) MDA-MB-231/ATCC cells after 48 hr by SRB assay; conditions: MDA-MB-231, 48 h; for CC50: read-out: LC50 (the source's name)
Escherichia coli = experiment: Antimicrobial activity against Escherichia coli ATCC 11775 after 48 hr by two-fold serial broth dilution method; conditions: ATCC 11775, 48 h
786-0 [2] = experiment: Growth inhibition of Homo sapiens (human) 786-0 cells at 10 uM after 48 hr by SRB assay; conditions: 786-0, 48 h, read-out: GI
NCI-H460 = experiment: Anticancer activity against Homo sapiens (human) NCI-H460 cells after 48 hr by SRB assay; conditions: NCI-H460, 48 h; for CC50: read-out: LC50 (the source's name)
Bacillus subtilis = experiment: Antimicrobial activity against Bacillus subtilis ATCC 6633 after 48 hr by two-fold serial broth dilution method; conditions: ATCC 6633, 48 h
SF-539 = experiment: Anticancer activity against Homo sapiens (human) SF539 cells after 48 hr by SRB assay; conditions: SF-539, 48 h; for CC50: read-out: LC50 (the source's name)
SW-620 = experiment: Anticancer activity against Homo sapiens (human) SW620 cells after 48 hr by SRB assay; conditions: SW-620, 48 h; for CC50: read-out: LC50 (the source's name)
U-251 = experiment: Growth inhibition of Homo sapiens (human) U251 cells at 10 uM after 48 hr by SRB assay; conditions: U-251, 48 h, read-out: GI
SN12C = experiment: Anticancer activity against Homo sapiens (human) SN12C cells after 48 hr by SRB assay
Hs-578T = experiment: Anticancer activity against Homo sapiens (human) Hs 578T cells after 48 hr by SRB assay; conditions: for CC50: read-out: LC50 (the source's name)
OVCAR-8 [3] = experiment: Anticancer activity against Homo sapiens (human) OVCAR8 cells after 48 hr by SRB assay; conditions: OVCAR-8, 48 h
EKVX = experiment: Anticancer activity against Homo sapiens (human) EKVX cells after 48 hr by SRB assay; conditions: for CC50: read-out: LC50 (the source's name)
UO-31 = experiment: Growth inhibition of Homo sapiens (human) UO31 cells at 10 uM after 48 hr by SRB assay; conditions: UO-31, 48 h, read-out: GI
K562 = experiment: Growth inhibition of Homo sapiens (human) K562 cells at 10 uM after 48 hr by SRB assay; conditions: K562, 48 h, read-out: GI
DU-145 = experiment: Anticancer activity against Homo sapiens (human) DU145 cells after 48 hr by SRB assay; conditions: DU-145, 48 h; for CC50: read-out: LC50 (the source's name)
BT-549 = experiment: Growth inhibition of Homo sapiens (human) BT549 cells at 10 uM after 48 hr by SRB assay; conditions: BT-549, 48 h, read-out: GI
NCI-H322M = experiment: Anticancer activity against Homo sapiens (human) NCI-H322M cells after 48 hr by SRB assay; conditions: for CC50: read-out: LC50 (the source's name)
KM12 = experiment: Growth inhibition of Homo sapiens (human) KM12 cells at 10 uM after 48 hr by SRB assay; conditions: KM12, 48 h, read-out: GI
PC-3 = experiment: Growth inhibition of Homo sapiens (human) PC3 cells at 10 uM after 48 hr by SRB assay; conditions: PC-3, 48 h, read-out: GI
HT-29 = experiment: Anticancer activity against Homo sapiens (human) HT-29 cells after 48 hr by SRB assay; conditions: HT-29, 48 h; for CC50: read-out: LC50 (the source's name)
HOP-62 = experiment: Growth inhibition of Homo sapiens (human) HOP62 cells at 10 uM after 48 hr by SRB assay; conditions: HOP-62, 48 h, read-out: GI
SK-OV-3 = experiment: Growth inhibition of Homo sapiens (human) SKOV3 cells at 10 uM after 48 hr by SRB assay; conditions: SK-OV-3, 48 h, read-out: GI
OVCAR-8 [4] = experiment: Growth inhibition of Homo sapiens (human) OVCAR8 cells at 10 uM after 48 hr by SRB assay; conditions: OVCAR-8, 48 h, read-out: GI
TK-10 = experiment: Growth inhibition of Homo sapiens (human) TK10 cells at 10 uM after 48 hr by SRB assay; conditions: TK-10, 48 h, read-out: GI

SMILES: COc1ccc(OC)c(/C=C/c2nnc(S)n2-c2ccc(Cl)cc2)c1
- GI50 (RXF 393): 3.38 µM
- LC50 (RXF 393): > 100 µM
- TGI (RXF 393): 38.7 µM
- MBC (Staphylococcus aureus): 100 µg/mL (≈ 267 µM)
- MIC (Staphylococcus aureus): 100 µg/mL (≈ 267 µM)
- GI50 (M14): 4.24 µM
- LC50 (M14): > 100 µM
- TGI (M14): > 100 µM
- GI50 (ACHN): 23.8 µM
- TGI (ACHN): > 100 µM
- CC50 (ACHN): > 100 µM
- GI50 (SF-295): 4.16 µM
- TGI (SF-295): > 100 µM
- CC50 (SF-295): > 100 µM
- GI50 (SR): 4.56 µM
- TGI (SR): > 100 µM
- CC50 (SR): > 100 µM
- inhibition of growth at 10 µM (MDA-MB-435): 110%
- GI50 (HCT-116): 4.05 µM
- TGI (HCT-116): > 100 µM
- CC50 (HCT-116): > 100 µM
- GI50 (786-0 [1]): 7.17 µM
- TGI (786-0 [1]): > 100 µM
- CC50 (786-0 [1]): > 100 µM
- GI50 (MDA-MB-231): 14.5 µM
- TGI (MDA-MB-231): > 100 µM
- CC50 (MDA-MB-231): > 100 µM
- MBC (Escherichia coli): 50 µg/mL (≈ 134 µM)
- MIC (Escherichia coli): 50 µg/mL (≈ 134 µM)
- inhibition of growth at 10 µM (786-0 [2]): 41.1%
- GI50 (NCI-H460): 4.53 µM
- TGI (NCI-H460): > 100 µM
- CC50 (NCI-H460): > 100 µM
- MBC (Bacillus subtilis): 100 µg/mL (≈ 267 µM)
- MIC (Bacillus subtilis): 100 µg/mL (≈ 267 µM)
- GI50 (SF-539): 4.05 µM
- TGI (SF-539): 97.9 µM
- CC50 (SF-539): > 100 µM
- GI50 (SW-620): 5.09 µM
- TGI (SW-620): > 100 µM
- CC50 (SW-620): > 100 µM
- inhibition of growth at 10 µM (U-251): 46.7%
- GI50 (SN12C): 6.07 µM
- LC50 (SN12C): > 100 µM
- TGI (SN12C): > 100 µM
- GI50 (Hs-578T): 3.1 µM
- TGI (Hs-578T): > 100 µM
- CC50 (Hs-578T): > 100 µM
- GI50 (OVCAR-8 [3]): 28.4 µM
- LC50 (OVCAR-8 [3]): > 100 µM
- TGI (OVCAR-8 [3]): > 100 µM
- GI50 (EKVX): 30 µM
- TGI (EKVX): > 100 µM
- CC50 (EKVX): > 100 µM
- inhibition of growth at 10 µM (UO-31): 52.9%
- inhibition of growth at 10 µM (K562): 77.6%
- GI50 (DU-145): 19.1 µM
- TGI (DU-145): > 100 µM
- CC50 (DU-145): > 100 µM
- inhibition of growth at 10 µM (BT-549): 32.8%
- GI50 (NCI-H322M): 26.9 µM
- TGI (NCI-H322M): > 100 µM
- CC50 (NCI-H322M): > 100 µM
- inhibition of growth at 10 µM (KM12): 59.1%
- inhibition of growth at 10 µM (PC-3): 41.4%
- GI50 (HT-29): 3.67 µM
- TGI (HT-29): > 100 µM
- CC50 (HT-29): > 100 µM

SMILES: COc1ccc(OC)c(/C=C/c2nnc(Nc3ccc(Cl)cc3)o2)c1
- GI50 (RXF 393): 2.71 µM
- LC50 (RXF 393): 56.1 µM
- TGI (RXF 393): 7.92 µM
- MBC (Staphylococcus aureus): 50 µg/mL (≈ 140 µM)
- MIC (Staphylococcus aureus): 50 µg/mL (≈ 140 µM)
- inhibition of growth at 10 µM (HOP-62): 64.7%
- GI50 (M14): 20.7 µM
- LC50 (M14): > 100 µM
- TGI (M14): > 100 µM
- GI50 (ACHN): 3.29 µM
- TGI (ACHN): 19.9 µM
- CC50 (ACHN): > 100 µM
- inhibition of growth at 10 µM (SK-OV-3): 67.1%
- GI50 (SF-295): 6.15 µM
- TGI (SF-295): 64.5 µM
- CC50 (SF-295): > 100 µM
- inhibition of growth at 10 µM (OVCAR-8 [4]): 33.3%
- GI50 (SR): 48.2 µM
- TGI (SR): > 100 µM
- CC50 (SR): > 100 µM
- GI50 (HCT-116): 2.97 µM
- TGI (HCT-116): 13.1 µM
- CC50 (HCT-116): > 100 µM
- GI50 (786-0 [1]): 2.67 µM
- TGI (786-0 [1]): 7.6 µM
- CC50 (786-0 [1]): 55.3 µM
- GI50 (MDA-MB-231): 5.23 µM
- TGI (MDA-MB-231): 53.1 µM
- CC50 (MDA-MB-231): > 100 µM
- MBC (Escherichia coli): 50 µg/mL (≈ 140 µM)
- MIC (Escherichia coli): 50 µg/mL (≈ 140 µM)
- inhibition of growth at 10 µM (TK-10): 60.9%
- inhibition of growth at 10 µM (786-0 [2]): 72.1%
- GI50 (NCI-H460): 3.77 µM
- TGI (NCI-H460): > 100 µM
- CC50 (NCI-H460): > 100 µM
- MBC (Bacillus subtilis): 100 µg/mL (≈ 279 µM)
- MIC (Bacillus subtilis): 100 µg/mL (≈ 279 µM)
- GI50 (SF-539): 11.8 µM
- TGI (SF-539): 60.5 µM
- CC50 (SF-539): > 100 µM
- GI50 (SW-620): 18.3 µM
- TGI (SW-620): > 100 µM
- CC50 (SW-620): > 100 µM
- inhibition of growth at 10 µM (U-251): 58.2%
- GI50 (SN12C): 4.21 µM
- LC50 (SN12C): > 100 µM
- TGI (SN12C): > 100 µM
- GI50 (Hs-578T): 2.71 µM
- TGI (Hs-578T): 8.01 µM
- CC50 (Hs-578T): > 100 µM
- GI50 (OVCAR-8 [3]): 4.91 µM
- LC50 (OVCAR-8 [3]): 76.4 µM
- TGI (OVCAR-8 [3]): 21 µM
- GI50 (EKVX): 40.5 µM
- TGI (EKVX): > 100 µM
- CC50 (EKVX): > 100 µM
- inhibition of growth at 10 µM (UO-31): 95%
- GI50 (DU-145): 11.4 µM
- TGI (DU-145): 36.9 µM
- CC50 (DU-145): > 100 µM
- GI50 (NCI-H322M): 30.5 µM
- TGI (NCI-H322M): > 100 µM
- CC50 (NCI-H322M): > 100 µM
- GI50 (HT-29): 9.44 µM
- TGI (HT-29): 28.3 µM
- CC50 (HT-29): 82.1 µM
